Tested on: 616215-338-R-J1-PDC tumor spheroids, viability
Assay: Anticancer human tumor 616215-338-R-J1-PDC patient-derived colon adenocarcinoma cell line growth inhibition [GQUAD]
Conditions: spheroids with HUVEC and MSC; for IC50: curve of first compound; for viability, T/C: stronger effect = lower value
Source text: DNA G-quadruplex Stabilizer Agents in Combinations in Complex Spheroids
A high-throughput screen of multi-cell type tumor spheroids was designed to identify active combinations of DNA G-quadruplex stabilizer agents and targeted small molecules. Complex spheroids include a stromal component modeled by human endothelial cells (HUVEC) and fibroblasts modeled by human mesenchymal stem cells (MSCs). The concentration ranges selected for each drug and investigational agent were based upon clinically achievable concentrations if the clinical Cmax of the agent was known.
Compounds. The drugs and investigational agents: pidnarulex (CX-5461; NSC782164), APTO-253 (NSC789042), BRACO-19 (NSC847499), peposertib (NSC802822), ceralasertib (NSC780249), elimusertib (NSC800525), camonsertib (NSC841442), AZD-1390 (NSC803789), olaparib (NSC753686), talazoparib (NSC767125), ART-558 (NSC835418), sotorasib (NSC818433), MRTX-1133 (NSC836407), SN-38 (NSC673596), topotecan (NSC609699), etoposide (NSC141540), doxorubicin (NSC123127), gemcitabine (NSC613327), 5-fluorouracil (NSC19893), paclitaxel (NSC125973), vemurafenib (NSC761431), panobinostat (NSC761190), R-306465 (JNJ-16241199; NSC773264), adavosertib (NSC754352), TP-3654 (NSC805149), carboplatin (NSC241240), KSQ-4279 (NSC840948), and staurosporine (NSC755774) were obtained from the National Cancer Institute (NCI) Developmental Therapeutics Program Chemical Repository (34). The FDA-approved anticancer drug set is available from the NCI Developmental Therapeutics Program. […] The stock solutions were prepared in dimethyl sulfoxide (DMSO, Sigma-Aldrich, St. Louis, MO, cat. D2650) at 800-fold the tested concentration and stored at -70 degrees C prior to their use. All drugs and investigational agents were tested over a range starting from a high concentration at or near the clinical Cmax and decreasing in half-log increments. If the clinical Cmax for an agent had not been determined, the highest concentration tested was 10 microM.
2.3 Cell Culture. All cells were maintained in an incubator at 37 degrees C and 5% CO2 with 95% humidity. The PDC lines were cultured according to standard operating procedures established by the NCI PDMR. All PDCs were thawed and cultured in Matrigel-coated flasks prepared with a working solution of 1X Ham's F-12 nutrient mix, without supplementation (Invitrogen, cat. 11765054), 100 U/mL penicillin-streptomycin (Invitrogen, cat. 15140122), and 2.5% Matrigel (Corning Inc., cat. 354248) for the first three passages. The 857933-349-R-J2-PDC line was cultured in 6C/Colon 1B media, which includes advanced DMEM/F-12 (Thermo Fisher Scientific, cat. 12634028), 10 mM HEPES (Thermo Fisher Scientific, cat. 15630080), 1X GlutaMAX supplement (Thermo Fisher Scientific, cat. 35050061), 0.1 mg/mL primocin (InvivoGen, cat. ant-pm-2), 10% defined fetal bovine serum, heat inactivated (HyClone Laboratories Inc., cat. SH30070.03HI), 50% L-WRN conditioned media (ATCC, cat. CRL-3276), 1.25 mM N-Acetyl-L-cysteine (Sigma-Aldrich, cat. A9165), 10 mM nicotinamide (Sigma-Aldrich, cat. N0636), 1X B-27 supplement (Thermo Fisher Scientific, cat. 17504044), 1X N-2 supplement (Thermo Fisher Scientific, cat. 17502048), 10 microM Y-27632 dihydrochloride (Tocris Bioscience, cat. 1254), and 50 ng/mL human EGF recombinant protein (Thermo Fisher Scientific, cat. PHG0311). The 485176-168-R4-J1-PDC line was cultured in Panc media, which includes all 6C/Colon 1B media components plus 100 ng/mL human FGF-10 (Thermo Fisher Scientific, cat. 100-26), 500 nM SB-431542 (Selleckchem, cat. S1067), and gastrin (Tocris, cat. 3006).
[…]

[1] = second compound 0.0316 µM, first compound 0.0316 µM
[2] = second compound 0.0316 µM, first compound 0.1 µM
[3] = second compound 0.0316 µM, first compound 0.316 µM
[4] = second compound 0.0316 µM, first compound 1 µM
[5] = second compound 0.0316 µM, first compound 3.16 µM
[6] = second compound 0.0316 µM, first compound 10 µM
[7] = second compound 0.1 µM, first compound 0.0316 µM
[8] = second compound 0.1 µM, first compound 0.1 µM
[9] = second compound 0.1 µM, first compound 0.316 µM
[10] = second compound 0.1 µM, first compound 1 µM
[11] = second compound 0.1 µM, first compound 3.16 µM
[12] = second compound 0.1 µM, first compound 10 µM
[13] = second compound 0.316 µM, first compound 0.0316 µM
[14] = second compound 0.316 µM, first compound 0.1 µM
[15] = second compound 0.316 µM, first compound 0.316 µM
[16] = second compound 0.316 µM, first compound 1 µM
[17] = second compound 0.316 µM, first compound 3.16 µM
[18] = second compound 0.316 µM, first compound 10 µM
[19] = second compound 1 µM, first compound 0.0316 µM
[20] = second compound 1 µM, first compound 0.1 µM
[21] = second compound 1 µM, first compound 0.316 µM
[22] = second compound 1 µM, first compound 1 µM
[23] = second compound 1 µM, first compound 3.16 µM
[24] = second compound 1 µM, first compound 10 µM
[25] = second compound 3.16 µM, first compound 0.0316 µM
[26] = second compound 3.16 µM, first compound 0.1 µM
[27] = second compound 3.16 µM, first compound 0.316 µM
[28] = second compound 3.16 µM, first compound 1 µM
[29] = second compound 3.16 µM, first compound 3.16 µM
[30] = second compound 3.16 µM, first compound 10 µM
[31] = second compound 10 µM, first compound 0.0316 µM
[32] = second compound 10 µM, first compound 0.1 µM
[33] = second compound 10 µM, first compound 0.316 µM
[34] = second compound 10 µM, first compound 1 µM
[35] = second compound 10 µM, first compound 3.16 µM
[36] = second compound 10 µM, first compound 10 µM
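Also: spheroids exposed to agents for 7 days before readout.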
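For viability, T/C in this document: percent viability relative to DMSO vehicle control wells taken as 100%.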

Compound: C#Cc1c(F)ccc2cc(O)cc(-c3ncc4c(N5CC6CCC(C5)N6)nc(OCC56CCCN5CC(F)C6)nc4c3F)c12 (centres undefined) + CN(C)c1ccc(Nc2c3ccc(NC(=O)CCN4CCCC4)cc3nc3cc(NC(=O)CCN4CCCC4)ccc23)cc1
- IC50 (second compound 0.0316 µM): > 10 µM
- IC50 (second compound 0.1 µM): 9.07 µM
- IC50 (second compound 0.316 µM): > 10 µM
- IC50 (second compound 1 µM): 9.22 µM
- IC50 (second compound 3.16 µM): 8.57 µM
- IC50 (second compound 10 µM): 3.02 µM
- viability, T/C [1]: 91.1%
- viability, T/C [2]: 103%
- viability, T/C [3]: 102%
- viability, T/C [4]: 113%
- viability, T/C [5]: 108%
- viability, T/C [6]: 61.4%
- viability, T/C [7]: 103%
- viability, T/C [8]: 105%
- viability, T/C [9]: 111%
- viability, T/C [10]: 111%
- viability, T/C [11]: 105%
- viability, T/C [12]: 44.9%
- viability, T/C [13]: 106%
- viability, T/C [14]: 109%
- viability, T/C [15]: 110%
- viability, T/C [16]: 105%
- viability, T/C [17]: 90.4%
- viability, T/C [18]: 64.3%
- viability, T/C [19]: 109%
- viability, T/C [20]: 100%
- viability, T/C [21]: 106%
- viability, T/C [22]: 105%
- viability, T/C [23]: 98%
- viability, T/C [24]: 46.3%
- viability, T/C [25]: 109%
- viability, T/C [26]: 86.8%
- viability, T/C [27]: 100%
- viability, T/C [28]: 93.5%
- viability, T/C [29]: 106%
- viability, T/C [30]: 42.3%
- viability, T/C [31]: 99.4%
- viability, T/C [32]: 79.6%
- viability, T/C [33]: 94.2%
- viability, T/C [34]: 67.5%
- viability, T/C [35]: 50.1%
- viability, T/C [36]: 22.4%

Compound: CCCS(=O)(=O)Nc1ccc(F)c(C(=O)c2c[nH]c3ncc(-c4ccc(Cl)cc4)cc23)c1F + CN(C)c1ccc(Nc2c3ccc(NC(=O)CCN4CCCC4)cc3nc3cc(NC(=O)CCN4CCCC4)ccc23)cc1
- IC50 (second compound 0.0316 µM): 5.56 µM
- IC50 (second compound 0.1 µM): 5.39 µM
- IC50 (second compound 0.316 µM): 5.39 µM
- IC50 (second compound 1 µM): 5.91 µM
- IC50 (second compound 3.16 µM): 5.18 µM
- IC50 (second compound 10 µM): 3.79 µM
- viability, T/C [1]: 103%
- viability, T/C [2]: 110%
- viability, T/C [3]: 108%
- viability, T/C [4]: 105%
- viability, T/C [5]: 94.3%
- viability, T/C [6]: 3.74%
- viability, T/C [7]: 101%
- viability, T/C [8]: 92.6%
- viability, T/C [9]: 112%
- viability, T/C [10]: 94.6%
- viability, T/C [11]: 89.8%
- viability, T/C [12]: 3.81%
- viability, T/C [13]: 105%
- viability, T/C [14]: 96.5%
- viability, T/C [15]: 99.7%
- viability, T/C [16]: 92%
- viability, T/C [17]: 89.3%
- viability, T/C [18]: 4.92%
- viability, T/C [19]: 112%
- viability, T/C [20]: 88.7%
- viability, T/C [21]: 89.1%
- viability, T/C [22]: 100%
- viability, T/C [23]: 97.3%
- viability, T/C [24]: 10.3%
- viability, T/C [25]: 101%
- viability, T/C [26]: 99.4%
- viability, T/C [27]: 105%
- viability, T/C [28]: 85.4%
- viability, T/C [29]: 84.9%
- viability, T/C [30]: 7.85%
- viability, T/C [31]: 88.9%
- viability, T/C [32]: 73.8%
- viability, T/C [33]: 94%
- viability, T/C [34]: 88%
- viability, T/C [35]: 58.4%
- viability, T/C [36]: 5.74%
